# ± gives the expanded uncertainty stated by the source.
# Assay: activity coefficient (dimensionless); of the first substance listed, at infinite dilution; xn = mol fraction of the nth substance listed
# Details: Liquid, Chromatography, x1 = 0
SMILES,activity coefficient (278.15 K),activity coefficient (298.15 K)
CCCCCCC [heptane] + O=Cc1ccco1,38.1 ± 3.3,33.4 ± 2.9
C1CCCC1 [cyclopentane] + O=Cc1ccco1,14.2 ± 1.2,13.3 ± 1.2
C=CCCCC [hex-1-ene] + O=Cc1ccco1,15.2 ± 1.3,15 ± 1.3
CCCCC [pentane] + O=Cc1ccco1,24.3 ± 2.1,21.6 ± 1.9
c1ccccc1 [benzene] + O=Cc1ccco1,2.55 ± 0.22,2.45 ± 0.21
CCCCCC [hexane] + O=Cc1ccco1,31.9 ± 2.8,27.8 ± 2.4
C#CCCCCC [1-heptyne] + O=Cc1ccco1,20 ± 1.7,17.9 ± 1.5
C1CCCCCC1 [cycloheptane] + O=Cc1ccco1,18.6 ± 1.6,15.5 ± 1.3
C1CCCCC1 [cyclohexane] + O=Cc1ccco1,16.8 ± 1.5,13.6 ± 1.2
C#CCCCC [1-hexyne] + O=Cc1ccco1,6.27 ± 0.54,5.09 ± 0.44

# Reference: the NIST ThermoML archive (doi:10.1016/j.jct.2003.09.011)
